Marks after values point to notes of the source that are not given here.
Tests used:
[1] = test system: LPS-stimulated RAW264.7 cells; test: NO production (Griess reagent) in LPS-stimulated RAW264.7 cells; format: cell-based, Mouse; conditions: for NO production, Average / NO production, Average (μM): then LPS (500 ng/mL) 20 h, LPS alone 25.9, control 3.1; for Anti-inflammatory effect (inhibition of NO secretion), in words: 20, 40, and 80 μM, compared with LPS-only treatment
Procedure: A high concentration of NO promotes the synthesis of inflammatory mediators, leading to an inflammatory response, and has been reported to be a cause of various immune diseases. Therefore, this study was conducted to investigate the effect of coumarin derivatives on the production of NO induced by LPS stimulation in RAW264.7 cells. The cells were treated with coumarin derivatives at concentrations of 20, 40, and 80 μM for 2 h. Then, the cells were treated with LPS. After 20 h, the culture supernatant was recovered, and the amount of NO was measured. […] The anti-inflammatory activity of these derivatives depended on the position of the substituted group rather than the electron density of the substituted group.
The Griess reagent was used to measure NO production. RAW264.7 cells were seeded into a 96-well plate and cultured for 24 h. The cells were treated with 20, 40, and 80 μM of coumarin derivatives, cultured for 2 h, and then cultured with LPS (500 ng/mL) for 20 h. The same amount of cell supernatant and Griess reagent were used for the reaction, and absorbance was measured at 540 nm.

in vitro = format: cell-based; conditions: mouse, RAW264.7 cells, then LPS (500 ng/mL) 20 h, read-out: Cell viability, Average (%); for viability at 22 h, 20 μM: 20 μM for 2 h; for viability at 22 h, 40 μM: 40 μM for 2 h; for viability at 22 h, 80 μM: 80 μM for 2 h
Procedure: To investigate the anti-inflammatory activity of coumarin derivatives, cell viability was analyzed by treating RAW264.7 cells with 23 types of coumarin derivatives at concentrations of 20, 40, and 80 μM for 2 h and with LPS for 20 h.
Mouse macrophage RAW264.7 cells were purchased from the Korea Cell Line Bank (Seoul, Republic of Korea) and cultured in Dulbecco’s Modified Eagle Medium (Corning, NY, USA) containing 10% fetal bovine serum and 1% penicillin/streptomycin at 37 °C and 5% CO2. The medium was changed every 2 days and subcultured when the cells grew > 80%.
EZ-Cytox cell viability assay kit (Dogen, Suwon, Republic of Korea) was used to measure cell viability according to the manufacturer’s instructions. RAW264.7 cells were seeded into a 96-well plate (1 × 10^5 cells/well) and treated with coumarin derivatives at concentrations of 20, 40, and 80 μM. After 2 h, the cells were treated with LPS (500 ng/mL) and cultured for 24 h in a 37 °C, 5% CO2 incubator. The culture supernatant was treated with 10% EZ-Cytox reagent, and a microplate reader was used to measure the absorbance at 450 nm.

Structure (SMILES): N#CC1=C(N)Oc2c(c(=O)oc3ccccc23)C1c1ccccc1OC(F)(F)F (stereo not drawn) [Coumarin derivative 12]
- NO production, Average ([1]; 20 μM for 2 h): 16.58 µM
- NO production, Average (μM) ([1]; 40 μM for 2 h): 17.28 *** μM
- NO production, Average (μM) ([1]; 80 μM for 2 h): 17.98 *** μM
- Anti-inflammatory effect (inhibition of NO secretion), in words [1]: showed anti-inflammatory effects
- viability at 22 h, 20 μM (in vitro): 99.2%
- viability at 22 h, 40 μM (in vitro): 102%
- viability at 22 h, 80 μM (in vitro): 106%

Structure (SMILES): N#CC1=C(N)Oc2c(c(=O)oc3ccccc23)C1c1cccc(OC(F)(F)F)c1 (stereo not drawn) [Coumarin derivative 13]
- NO production, Average ([1]; 20 μM for 2 h): 27.17 µM
- NO production, Average ([1]; 40 μM for 2 h): 26.33 µM
- NO production, Average ([1]; 80 μM for 2 h): 24.94 µM
- Anti-inflammatory effect (inhibition of NO secretion), in words [1]: almost no anti-inflammatory effects
- viability at 22 h, 20 μM (in vitro): 114%
- viability at 22 h, 40 μM (in vitro): 118%
- viability at 22 h, 80 μM (in vitro): 112%

Structure (SMILES): N#CC1=C(N)Oc2c(c(=O)oc3ccccc23)C1c1ccc(OC(F)(F)F)cc1 (stereo not drawn) [Coumarin derivative 14]
- NO production, Average ([1]; 20 μM for 2 h): 27.72 µM
- NO production, Average ([1]; 40 μM for 2 h): 24.52 µM
- NO production, Average (μM) ([1]; 80 μM for 2 h): 16.31 *** μM
- Anti-inflammatory effect (inhibition of NO secretion), in words [1]: weak anti-inflammatory effects at high concentrations
- viability at 22 h, 20 μM (in vitro): 110%
- viability at 22 h, 40 μM (in vitro): 95.8%
- viability at 22 h, 80 μM (in vitro): 102%

Structure (SMILES): COc1ccccc1C1C(C#N)=C(N)Oc2c1c(=O)oc1ccccc21 (stereo not drawn) [Coumarin derivative 15]
- NO production, Average ([1]; 20 μM for 2 h): 26.33 µM
- NO production, Average ([1]; 40 μM for 2 h): 22.71 µM
- NO production, Average (μM) ([1]; 80 μM for 2 h): 19.37 ** μM
- Anti-inflammatory effect (inhibition of NO secretion), in words [1]: showed anti-inflammatory effects
- viability at 22 h, 20 μM (in vitro): 109%
- viability at 22 h, 40 μM (in vitro): 112%
- viability at 22 h, 80 μM (in vitro): 114%

Structure (SMILES): COc1cccc(C2C(C#N)=C(N)Oc3c2c(=O)oc2ccccc32)c1 (stereo not drawn) [Coumarin derivative 16]
- NO production, Average ([1]; 20 μM for 2 h): 27.58 µM
- NO production, Average ([1]; 40 μM for 2 h): 26.33 µM
- NO production, Average (μM) ([1]; 80 μM for 2 h): 16.17 *** μM
- viability at 22 h, 20 μM (in vitro): 107%
- viability at 22 h, 40 μM (in vitro): 102%
- viability at 22 h, 80 μM (in vitro): 96.3%

Structure (SMILES): COc1ccc(C2C(C#N)=C(N)Oc3c2c(=O)oc2ccccc32)cc1 (stereo not drawn) [Coumarin derivative 17]
- NO production, Average ([1]; 20 μM for 2 h): 28.68 µM
- NO production, Average ([1]; 40 μM for 2 h): 26.11 µM
- NO production, Average (μM) ([1]; 80 μM for 2 h): 20.16 ** μM
- Anti-inflammatory effect (inhibition of NO secretion), in words [1]: weak anti-inflammatory effects at high concentrations
- viability at 22 h, 20 μM (in vitro): 122%
- viability at 22 h, 40 μM (in vitro): 122%
- viability at 22 h, 80 μM (in vitro): 137%

Structure (SMILES): N#CC1=C(N)Oc2c(c(=O)oc3ccccc23)C1c1ccccc1Br (stereo not drawn) [Coumarin derivative 18]
- NO production, Average ([1]; 20 μM for 2 h): 28.03 µM
- NO production, Average ([1]; 40 μM for 2 h): 27.87 µM
- NO production, Average ([1]; 80 μM for 2 h): 25.95 µM
- Anti-inflammatory effect (inhibition of NO secretion), in words [1]: almost no anti-inflammatory effect
- viability at 22 h, 20 μM (in vitro): 129%
- viability at 22 h, 40 μM (in vitro): 130%
- viability at 22 h, 80 μM (in vitro): 138%

Structure (SMILES): N#CC1=C(N)Oc2c(c(=O)oc3ccccc23)C1c1cccc(Br)c1 (stereo not drawn) [Coumarin derivative 19]
- NO production, Average ([1]; 20 μM for 2 h): 27.07 µM
- NO production, Average ([1]; 40 μM for 2 h): 17.76 µM
- NO production, Average (μM) ([1]; 80 μM for 2 h): 10.05 *** μM
- Anti-inflammatory effect (inhibition of NO secretion), in words [1]: inhibited NO secretion in a concentration-dependent manner
- viability at 22 h, 20 μM (in vitro): 117%
- viability at 22 h, 40 μM (in vitro): 119%
- viability at 22 h, 80 μM (in vitro): 120%

Structure (SMILES): N#CC1=C(N)Oc2c(c(=O)oc3ccccc23)C1c1ccc(Br)cc1 (stereo not drawn) [Coumarin derivative 20]
- NO production, Average ([1]; 20 μM for 2 h): 31.89 µM
- NO production, Average ([1]; 40 μM for 2 h): 30.12 µM
- NO production, Average (μM) ([1]; 80 μM for 2 h): 19.52 ** μM
- viability at 22 h, 20 μM (in vitro): 114%
- viability at 22 h, 40 μM (in vitro): 124%
- viability at 22 h, 80 μM (in vitro): 135%

Structure (SMILES): N#CC1=C(N)Oc2c(c(=O)oc3ccccc23)C1c1cccc(C#N)c1 (stereo not drawn) [Coumarin derivative 21]
- NO production, Average ([1]; 20 μM for 2 h): 28.68 µM
- NO production, Average ([1]; 40 μM for 2 h): 22.73 µM
- NO production, Average (μM) ([1]; 80 μM for 2 h): 11.97 *** μM
- Anti-inflammatory effect (inhibition of NO secretion), in words [1]: weak anti-inflammatory effects
- viability at 22 h, 20 μM (in vitro): 131%
- viability at 22 h, 40 μM (in vitro): 122%
- viability at 22 h, 80 μM (in vitro): 102%

Structure (SMILES): N#CC1=C(N)Oc2c(c(=O)oc3ccccc23)C1c1ccc(C#N)cc1 (stereo not drawn) [Coumarin derivative 22]
- NO production, Average ([1]; 20 μM for 2 h): 31.41 µM
- NO production, Average ([1]; 40 μM for 2 h): 28.84 µM
- NO production, Average ([1]; 80 μM for 2 h): 22.89 µM
- Anti-inflammatory effect (inhibition of NO secretion), in words [1]: weak anti-inflammatory effects at high concentrations
- viability at 22 h, 20 μM (in vitro): 120%
- viability at 22 h, 40 μM (in vitro): 122%
- viability at 22 h, 80 μM (in vitro): 114%

Source: publication PMC10298626 (International Journal of Molecular Sciences, 2023)
